Patent US8394789B2, “(Dihydro)pyrrolo[2,1-α]isoquinolines” (MSD Oss B.V., priority 2008, dated 2013)

biological target: T1, human FSH receptor (Homo sapiens, UniProt P23945); assay: hFSHRago (CHO luc): agonistic activity at the human FSH receptor expressed in CHO cells, CRE-luciferase reporter; type: cell-based; settings: CHO cells stably transfected with human FSH receptor and CRE/luciferase reporter; 4 hours of incubation
T1 construct: expressed in transfected cells
T1 sequence (P23945 18-695): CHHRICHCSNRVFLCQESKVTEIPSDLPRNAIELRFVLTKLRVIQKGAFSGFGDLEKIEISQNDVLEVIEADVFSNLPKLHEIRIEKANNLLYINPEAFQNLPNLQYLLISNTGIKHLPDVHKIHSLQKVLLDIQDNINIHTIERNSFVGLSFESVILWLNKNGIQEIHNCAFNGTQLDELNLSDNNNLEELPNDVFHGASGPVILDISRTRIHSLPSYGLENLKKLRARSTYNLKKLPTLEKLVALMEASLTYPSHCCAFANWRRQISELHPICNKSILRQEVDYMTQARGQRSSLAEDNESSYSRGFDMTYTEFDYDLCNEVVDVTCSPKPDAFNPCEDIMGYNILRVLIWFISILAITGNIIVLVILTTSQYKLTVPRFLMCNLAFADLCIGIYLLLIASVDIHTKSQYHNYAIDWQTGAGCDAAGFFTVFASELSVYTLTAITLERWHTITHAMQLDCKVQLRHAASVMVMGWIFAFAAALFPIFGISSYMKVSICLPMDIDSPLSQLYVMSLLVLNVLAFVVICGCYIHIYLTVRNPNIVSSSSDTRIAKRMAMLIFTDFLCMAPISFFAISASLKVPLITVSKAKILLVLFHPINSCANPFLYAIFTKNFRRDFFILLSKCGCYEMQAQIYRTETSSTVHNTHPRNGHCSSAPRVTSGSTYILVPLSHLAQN
Text: The term EC50 means the concentration of the test compound that elicits half-maximal (50%) stimulation compared to the compound's maximally attainable effect. The values can be determined e.g. in a cell line transfected with a FSH receptor gene and cotransfected with a cAMP responsive element/promoter directing the expression of a reporter gene. Values can be determined using the software program such as MathIQ (version 2.0, ID Business Solutions Limited).
Agonistic activity of the compounds at the human FSH receptor was determined in Chinese Hamster Ovary (CHO) cells stably transfected with the human FSH receptor and cotransfected with a cAMP responsive element (CRE)/promoter directing the expression of a firefly luciferase reporter gene. […] Cells (7,500 cells/well of a 384 well plate) were incubated in Dulbecco' minimal essential F12 modified medium (Invitrogen), supplemented with 1 μg/ml bovine insulin, 5 μg/ml human apo-transferrin, 80 U/ml penicillin G and 80 μg/ml streptomycin with the test compounds (concentration between 0.0316 nM and 10.0 μM) in duplicate in a humidified atmosphere (95%) at 5-7% CO2 and 37° C. The final concentration of DMSO was 1%. After 4 hours of incubation, plates were allowed to adjust to room temperature for 1 hour. Then, Luclite (PerkinElmer) solution was added to the wells and cells were allowed to lyse for at least 1 hour at room temperature. Subsequently, luciferase activity was measured in a luminescence counter. The signal is expressed as counts per second (cps). The EC50 (concentration of the test compound that elicits half-maximal (50%) luciferase stimulation compared to the compound's maximally attainable effect) and efficacy values (maximal effect of the test compound as percentage of the maximal effect of recombinant human FSH) of the compounds were determined using the software program MathIQ (version 2.0, ID Business Solutions Limited).

In order of rising EC50:
1. COc1cc2c(cc1OC(C)C)-c1c(-c3cccs3)c(C#N)c(C(=O)N3CCCN(C(=O)C4CCC4)CC3)n1CC2 [Example 7d, 3-(4-Cyclobutanecarbonyl-[1,4]diazepane-1-carbonyl)-9-isopropoxy-8-methoxy-1-thiophen-2-yl-5,6-dihydro-pyrrolo[2,1-α]isoquinoline-2-carbonitrile]  0.3 nM
2. CCCCN1CCN(C(=O)c2cc(-c3cccs3)c3n2CCc2cc(OC)c(OC(C)C)cc2-3)CCC1=O [Example 14a, 4-Butyl-1-(9-isopropoxy-8-methoxy-1-thiophen-2-yl-5,6-dihydro-pyrrolo[2,1-α]iso-quinoline-3-carbonyl)-[1,4]diazepan-5-one]  0.8 nM
3. COc1cc2c(cc1NS(C)(=O)=O)-c1c(-c3cccs3)cc(C(=O)N3CCCC3(C)C)n1CC2 [Example 100, N-[3-(2,2-Dimethyl-pyrrolidine-1-carbonyl)-8-methoxy-1-thiophen-2-yl-5,6-dihydro-pyrrolo[2,1-α]isoquinolin-9-yl]-methanesulfonamide]  1 nM
4. COc1cc2c(cc1OCCCO)-c1c(-c3cccs3)cc(C(=O)N(C)C(C)(C)C)n1CC2 [Example 70d, 9-(3-Hydroxy-propoxy)-8-methoxy-1-thiophen-2-yl-5,6-dihydro-pyrrolo[2,1-α]iso-quinoline-3-carboxylic acid tert-butyl-methyl-amide]  1.3 nM
5. COc1cc2c(cc1OC(C)C)-c1c(-c3cccs3)cc(C(=O)N3CCCN(C(=O)C4CCC4)CC3)n1CC2 [Example 7c, (4-Cyclobutanecarbonyl-[1,4]diazepan-1-yl)-(9-isopropoxy-8-methoxy-1-thiophen-2-yl-5,6-dihydro-pyrrolo[2,1-α]isoquinolin-3-yl)-methanone]  1.7 nM
6. COc1cc2c(cc1C(C)=O)-c1c(-c3cccs3)cc(C(=O)N3CCCC3(C)C)n1CC2 [Example 122, 1-[3-(2,2-Dimethyl-pyrrolidine-1-carbonyl)-8-methoxy-1-thiophen-2-yl-5,6-dihydro-pyrrolo[2,1-α]isoquinolin-9-yl]-ethanone]  2 nM
7. COc1cc2c(cc1C=C(C)C)-c1c(-c3nccs3)cc(C(=O)N(C)C(C)(C)C)n1CC2 [Example 59, 8-Methoxy-9-(2-methyl-propenyl)-1-thiazol-2-yl-5,6-dihydro-pyrrolo[2,1-α]isoquinoline-3-carboxylic acid tert-butyl-methyl-amide]  2.6 nM
8. COc1cc2c(cc1OC)-c1c(-c3cccs3)cc(C(=O)N3CCCN(C(=O)C4(C)CCC4)CC3)n1CC2 [Example 104, (8,9-Dimethoxy-1-thiophen-2-yl-5,6-dihydro-pyrrolo[2,1-α]isoquinolin-3-yl)-[4-(1-methyl-cyclobutanecarbonyl)-[1,4]diazepan-1-yl]-methanone]  3 nM
9. COc1cc2c(cc1NC(=O)C(C)C)-c1c(-c3cccs3)cc(C(=O)N3CCCC3(C)C)n1CC2 [Example 62, N-[3-(2,2-Dimethyl-pyrrolidine-1-carbonyl)-8-methoxy-1-thiophen-2-yl-5,6-dihydro-pyrrolo[2,1-α]isoquinolin-9-yl]-isobutyramide]  3.7 nM
10. COc1cc2c(cc1C#N)-c1c(-c3cccs3)cc(C(=O)N(C)C(C)(C)C)n1CC2 [Example 83, 9-Cyano-8-methoxy-1-thiophen-2-yl-5,6-dihydro-pyrrolo[2,1--α]isoquinoline-3-carboxylic acid tert-butyl-methyl-amide]  4.3 nM
11. COc1cc2c(cc1OC(C)C)-c1c(-c3cccs3)cc(C(=O)N3CCCN(C(=O)C4(OC)CCC4)CC3)n1CC2 [Example 11, (9-Isopropoxy-8-methoxy-1-thiophen-2-yl-5,6-dihydro-pyrrolo[2,1-α]isoquinolin-3-yl)-[4-(1-methoxy-cyclobutanecarbonyl)-[1,4]diazepan-1-yl]-methanone]  5.4 nM
12. COc1cc2c(cc1OCCN=[N+]=[N-])-c1c(-c3cccs3)cc(C(=O)N(C)C(C)(C)C)n1CC2 [Example 65f, 9-(2-Azido-ethoxy)-8-methoxy-1-thiophen-2-yl-5,6-dihydro-pyrrolo[2,1-α]isoquinoline-3-carboxylic acid tert-butyl-methyl-amide]  7.1 nM
13. COc1cc2c(cc1OC(C)C)-c1c(-c3cccs3)c(CO)c(C(=O)N(C)C(C)(C)C)n1CC2 [Example 40, 2-Hydroxymethyl-9-isopropoxy-8-methoxy-1-thiophen-2-yl-5,6-dihydro-pyrrolo[2,1-α]isoquinoline-3-carboxylic acid tert-butyl-methyl-amide]  8.8 nM
14. COc1cc2c(cc1CO)-c1c(-c3cccs3)cc(C(=O)N(C)C(C)(C)C)n1CC2 [Example 121a, 9-Hydroxymethyl-8-methoxy-1-thiophen-2-yl-5,6-dihydro-pyrrolo[2,1-α]isoquinoline-3-carboxylic acid tert-butyl-methyl-amide]  10 nM
15. COc1cc2c(cc1OCCSC)-c1c(-c3cccs3)cc(C(=O)N(C)C(C)(C)C)n1CC2 [Example 71, 8-Methoxy-9-(2-methylsulfanyl-ethoxy)-1-thiophen-2-yl-5,6-dihydro-pyrrolo[2,1-α]isoquinoline-3-carboxylic acid tert-butyl-methyl-amide]  26.3 nM
16. CCOC(=O)CN(C)C(=O)c1cc(-c2ccsc2)c2n1CCc1cc(OC)c(OC)cc1-2 [Example 119c, [(8,9-Dimethoxy-1-thiophen-3-yl-5,6-dihydro-pyrrolo[2,1-α]isoquinoline-3-carbonyl)-methyl-amino]-acetic acid ethyl ester]  42 nM
17. COc1cc2c(cc1OC(C)C)-c1c(-c3cccs3)cc(C(=O)CC(C)(C)C)n1CC2 [Example 45]  65.1 nM
18. COc1cc2c(cc1C(=O)N1CCOCC1)-c1c(-c3cccs3)cc(C(=O)N(C)C(C)(C)C)n1CC2 [Example 86]  69.4 nM
19. COc1cc2c(cc1OC(C)C)-c1c(-c3cccs3)cc(C(=O)N3CC4CC(CN(C(=O)CSC)C4)C3)n1CC2 [Example 21, 1-[7-(9-Isopropoxy-8-methoxy-1-thiophen-2-yl-5,6-dihydro-pyrrolo[2,1-α]isoquinoline-3-carbonyl)-3,7-diaza-bicyclo[3.3.1]non-3-yl]-2-methylsulfanyl-ethanone]  77.8 nM
20. COc1cc2c(cc1OCCC(C)C)-c1c(-c3cccs3)cc(C(=O)N3CCCN(C(C)=O)CC3)n1CC2 [Example 80, 1-{4-[8-Methoxy-9-(3-methyl-butoxy)-1-thiophen-2-yl-5,6-dihydro-pyrrolo[2,1-α]isoquinoline-3-carbonyl]-perhydro-1,4-diazepin-1-yl}-ethanone]  101 nM
21. COc1cc2c(cc1OC(C)C)-c1c(-c3cccs3)cc(C(=O)N3CCNC(=O)CC3)n1CC2 [Example 13, 1-(9-Isopropoxy-8-methoxy-1-thiophen-2-yl-5,6-dihydro-pyrrolo[2,1-α]isoquinoline-3-carbonyl)-[1,4]diazepan-5-one]  106 nM
22. COc1cc2c(cc1OC(C)C)-c1c(-c3cccs3)cc(C(=O)N(C)C3C[C@@H]4CN(C(C)=O)C[C@@H]4C3)n1CC2 (stereo partly drawn) [Example 24, 9-Isopropoxy-8-methoxy-1-thiophen-2-yl-5,6-dihydro-pyrrolo[2,1-α]isoquinoline-3-carboxylic acid (2-acetyl-octahydro-cyclopenta[c]pyrrol-5(endo)-yl)-methyl-amide]  191 nM
23. COc1cc2c(cc1OC(C)C)-c1c(-c3cccs3)cc(C(=O)C(C)N3CCCN(C(C)=O)CC3)n1CC2 (stereo not drawn) [Example 49, 2-(4-Acetyl-[1,4]diazepan-1-yl)-1-(9-isopropoxy-8-methoxy-1-thiophen-2-yl-5,6-dihydro-pyrrolo[2,1-α]isoquinolin-3-yl)-propan-1-one]  200 nM
24. COc1cc2c(cc1OC(C)C)-c1c(-c3cccs3)cc(C(=O)N(C)N(C)C)n1CC2 [Example 31, 9-Isopropoxy-8-methoxy-1-thiophen-2-yl-5,6-dihydro-pyrrolo[2,1-α]isoquinoline-3-carboxylic acid trimethylhydrazide]  241 nM
25. COc1cc2c(cc1OC(C)C)-c1c(-c3cccs3)cc(C(=O)N[C@@H]3CCCN(C(C)=O)C3)n1CC2 [Example 34c, 9-Isopropoxy-8-methoxy-1-thiophen-2-yl-5,6-dihydro-pyrrolo[2,1-α]isoquinoline-3-carboxylic acid ((R)-1-acetyl-piperidin-3-yl)-amide]  251 nM
26. CN(C(=O)c1cc(-c2cccs2)c2n1CCc1ccc(N3CCCC3=O)cc1-2)C(C)(C)C [Example 88, 9-(2-Oxo-pyrrolidin-1-yl)-1-thiophen-2-yl-5,6-dihydro-pyrrolo[2,1-α]isoquinoline-3-carboxylic acid tert-butyl-methyl-amide]  310 nM
27. CCN(C(=O)c1cc(-c2ccsc2)c2n1CCc1cc(OC)c(OC)c(F)c1-2)C(C)C [Example 116, 10-Fluoro-8,9-dimethoxy-1-thiophen-3-yl-5,6-dihydro-pyrrolo[2,1-α]isoquinoline-3-carboxylic acid ethyl-isopropyl-amide]  318 nM
28. COc1cc2c(c(OC)c1)-c1c(-c3ccsc3)cc(C(=O)N(C)C(C)(C)C)n1CC2 [Example 120, 8,10-Dimethoxy-1-thiophen-3-yl-5,6-dihydro-pyrrolo[2,1-α]isoquinoline-3-carboxylic acid tert-butyl-methyl-amide]  699 nM
